We go through six molecules from article PMC9457622, “Synthesis of Bio-Inspired 1,3-Diarylpropene Derivatives via Heck Cross-Coupling and Cytotoxic Evaluation on Breast Cancer Cells” (Molecules, 2022).

Entries after “also recorded” stand apart in the source; their conditions may differ.

Type in all cases: cell-based
Series [1] deals with MCF-7 human breast cancer cell lines. Put plainly: MTT proliferation (cytotoxicity) assay on MCF-7 cells. Conditions: for cytotoxicity against MCF-7 (in words): 10-100 µM, 24-72 h; for cytotoxicity against MCF-7 (in words) / IC50: MTT; for SI (selectivity index) MCF-7: IC50 normal cells (MCF-10A) divided by IC50 MCF-7; for IC50: Homo sapiens, MCF7. The text has this:
(§1) MCF-7 and MDA-MB-231 human breast cancer cell lines, as well as MCF-10A human normal breast cell lines, were used in this study. These cells were acquired from the American Type Culture Collection (Manassas, VA, USA). MCF-7 and MDAMB-231 cells were regularly cultured in Dulbecco’s Modified Eagle’s Medium (DMEM; Gibco, Waltham, MA, USA), and supplemented with 10% (v/v) foetal bovine serum (FBS; Gibco, Waltham, MA, USA) and 100 U/mL penicillin-streptomycin (PenStrep; Gibco, Waltham, MA, USA). MCF-10A cells were routinely cultured in DMEM/F12 (Gibco, Waltham, MA, USA) medium supplemented with 5% horse serum (Sigma-Aldrich, Burlington, MA, USA), 10 μg/mL of insulin (Sigma-Aldrich, Burlington, MA, USA), 20 ng/mL of human epidermal growth factor (hEGF; ThermoFisher, Waltham, MA, USA), 0.5 μg/mL of hydrocortisone (Sigma-Aldrich, Burlington, MA, USA) and 1 U/mL PenStrep. All cell lines were maintained in a humidified atmosphere with 5% CO2 at 37 °C.
(§2) The effects of the N-(2-cinnamylphenyl)amide products (i.e., isolated pure isomers) on MCF-7, MDA-MB-231 and MCF-10A were determined using a 3-(4,5-dimethylthiazol-2-yl)-2,5-diphenyltetrazolium bromide (MTT) proliferation assay. The cell lines were seeded in 96-well plates at a density of 1 × 10^4 cells/well and allowed to grow overnight for cell attachment. The cell lines were then treated with fresh assay medium, supplemented with increasing concentrations of tested compounds (10–100 µM) and incubated for 24–72 h at 37 °C. For this assay, the blank and negative controls used were the culture medium alone (without cells) and cells with culture medium only (untreated cells), respectively. […] At each incubation period (24, 48 and 72 h), 10 μL of MTT solution (5 mg/mL) was added to each well, and cells were further incubated for 4 h at 37 °C in 5% CO2. The solution mixture in each well was replaced with 100 μL of dimethyl sulfoxide (DMSO) to solubilise the MTT crystalline products. The optical density (O.D.) of each well was measured using a microplate reader (PowerWave-XS; Bio-Tek Instruments, Winooski, Vermont, USA) at 570 nm. The experiments were conducted in triplicate for each cell line.
(§3) The selectivity index (SI) was used to indicate the cytotoxic selectivity of the samples against cancer cells and normal cells. It was calculated from the IC50 of the samples in normal cells versus cancer cells. […] All data were analysed and presented as means standard deviation (±SD). Comparisons between each concentration of 18 samples were evaluated using Student’s t-test, where p < 0.05, p < 0.01 or p < 0.001 were considered as statistically significant relative to the untreated control cells.

For series [2], the system named is MDA-MB-231 human breast cancer cell lines. Put plainly: MTT proliferation (cytotoxicity) assay on MDA-MB-231 cells. Conditions: for cytotoxicity against MDA-MB-231 (in words): 10-100 µM, 24-72 h; for cytotoxicity against MDA-MB-231 (in words) / IC50: MTT; for SI (selectivity index) MDA-MB-231: IC50 normal cells (MCF-10A) divided by IC50 MDA-MB-231; for IC50: Homo sapiens, MDA-MB-231.
From the text: as §1, §2, §3

The subject of series [3] is MCF-10A human normal breast cell lines. Put plainly: MTT proliferation (cytotoxicity) assay on MCF-10A normal cells.
From the text: as §1, §2, §3

In the case of `CCCCC(=O)Nc1ccccc1/C=C/Cc1ccc(OC)cc1` [Compound 6d, (E)-N-(2-(3-(4-Methoxyphenyl)prop-1-en-1-yl)phenyl)pentanamide], in series [1], the “cytotoxicity against MCF-7 (in words)” value is on record as “low growth inhibition”. The “SI (selectivity index) MCF-7” value in series [1] (24 h) is above 1.06; in series [1] (48 h), 1.01; in series [1] (72 h) it was 1.41. The 50% inhibitory concentration (IC50) in series [1] (24 h incubation) is 94 ± 1.26 µM; in series [1] (48 h incubation) it was 93.3 ± 2.15 µM; in series [1] (72 h incubation), 65.8 ± 7.33 µM; in series [2] (24 h incubation), above 100 µM; in series [2] (48 h incubation) it was above 100 µM; in series [2] (72 h incubation), above 100 µM. The IC50 in series [3] (24 h incubation) was above 100 µM; in series [3] (48 h incubation), 94.4 ± 9.71 µM; in series [3] (72 h incubation), 92.9 ± 8.71 µM. Also, the “cytotoxicity against MDA-MB-231 (in words)” value in series [2] is “inactive; also recorded: low growth inhibition”. The “SI (selectivity index) MDA-MB-231” value in series [2] (48 h) is below 0.94; in series [2] (72 h), below 0.93.

As to `CCCCCC(=O)Nc1ccccc1/C=C/Cc1ccc(OC)cc1` [Compound 6e, (E)-N-(2-(3-(4-Methoxyphenyl)prop-1-en-1-yl)phenyl)hexanamide], the “cytotoxicity against MCF-7 (in words)” value in series [1] is “low growth inhibition”. Further, the “SI (selectivity index) MCF-7” value is reported as below 0.81 in series [1] (24 h), below 0.90 in series [1] (48 h) and below 0.99 in series [1] (72 h). Besides, the concentration for half-maximal inhibition (IC50) in series [1] (24 h incubation), in series [1] (48 h incubation), in series [1] (72 h incubation), in series [2] (24 h incubation), in series [2] (48 h incubation) and in series [2] (72 h incubation) was above 100 µM in each case. For the same molecule, the IC50 in series [3] (24 h incubation) amounted to 80.9 ± 7.58 µM; in series [3] (48 h incubation) it was 90.1 ± 8.8 µM; in series [3] (72 h incubation) it was 98.5 ± 2.6 µM. Further, the “cytotoxicity against MDA-MB-231 (in words)” value in series [2] is on record as “low growth inhibition”. The entries for the “SI (selectivity index) MDA-MB-231” value in series [2] (24 h), in series [2] (48 h) and in series [2] (72 h) were below 0.81, below 0.90 and below 0.99, respectively.

With `COc1ccc(C/C=C/c2ccccc2NC(=O)c2ccccc2C)cc1` [Compound 6i, (E)-N-(2-(3-(4-Methoxyphenyl)prop-1-en-1-yl)phenyl)-2-methylbenzamide], in series [1] (72 h), the “SI (selectivity index) MCF-7” value is listed as above 1.09. The IC50 in series [1] (24 h incubation) is above 100 µM; in series [1] (48 h incubation), above 100 µM; in series [1] (72 h incubation), 91.8 ± 7.95 µM; in series [2] (24 h incubation) it was above 100 µM; in series [2] (48 h incubation), above 100 µM; in series [2] (72 h incubation), 73.8 ± 6.92 µM. Besides, the IC50 in series [3] (24 h incubation), in series [3] (48 h incubation) and in series [3] (72 h incubation) was above 100 µM each time. Further, the “SI (selectivity index) MDA-MB-231” value in series [2] (72 h) is above 1.36.

With `CCCCC(=O)Nc1ccccc1C/C=C/c1ccc(OC)cc1` [Compound 7d, (E)-N-(2-(3-(4-Methoxyphenyl)allyl)phenyl)pentanamide], in series [1], the “cytotoxicity against MCF-7 (in words)” value is listed as “low growth inhibition”. Also, the results for the “SI (selectivity index) MCF-7” value in series [1] (24 h), in series [1] (48 h) and in series [1] (72 h) were above 1.70, 1.54 and 1.49, respectively. The IC50 is 58.9 ± 1.81 µM in series [1] (24 h incubation); 48.7 ± 3.46 µM in series [1] (48 h incubation); 47.9 ± 2.96 µM in series [1] (72 h incubation); above 100 µM in series [2] (24 h incubation); above 100 µM in series [2] (48 h incubation); above 100 µM in series [2] (72 h incubation). Moreover, the IC50 is above 100 µM in series [3] (24 h incubation), 75 ± 8.58 µM in series [3] (48 h incubation) and 71.2 ± 9.25 µM in series [3] (72 h incubation). In series [1] (abstract, time not stated, considered general toxicity), this molecule came in with an SI value below 2. Moreover, the “cytotoxicity against MDA-MB-231 (in words)” value in series [2] is “inactive; also recorded: low growth inhibition”. In addition, the figures for the “SI (selectivity index) MDA-MB-231” value in series [2] (48 h) and in series [2] (72 h) were below 0.75 and below 0.71, respectively.

For the molecule `CCCCCC(=O)Nc1ccccc1C/C=C/c1ccc(OC)cc1` [Compound 7e, (E)-N-(2-(3-(4-Methoxyphenyl)allyl)phenyl)hexanamide], the “cytotoxicity against MCF-7 (in words)” value in series [1] was “low growth inhibition”. The “SI (selectivity index) MCF-7” value is given as below 0.70 in series [1] (48 h) and 0.78 in series [1] (72 h). The IC50 in series [1] (24 h incubation) is above 100 µM; in series [1] (48 h incubation), above 100 µM; in series [1] (72 h incubation), 88.5 ± 2.37 µM; in series [2] (24 h incubation), above 100 µM; in series [2] (48 h incubation) it was above 100 µM; in series [2] (72 h incubation) it was above 100 µM. Also, the figures for the IC50 in series [3] (24 h incubation), in series [3] (48 h incubation) and in series [3] (72 h incubation) were above 100 µM, 70.3 ± 1.88 µM and 69.18 ± 0.01 µM, respectively. Besides, the “cytotoxicity against MDA-MB-231 (in words)” value in series [2] is “inactive; also recorded: low growth inhibition”. For the same molecule, the “SI (selectivity index) MDA-MB-231” value in series [2] (48 h) is below 0.70; in series [2] (72 h) it was below 0.69.

`COc1ccc(/C=C/Cc2ccccc2NC(=O)c2ccccc2C)cc1` [Compound 7i, (E)-N-(2-(3-(4-Methoxyphenyl)allyl)phenyl)-2-methylbenzamide]: the “cytotoxicity against MCF-7 (in words)” value in series [1] is recorded as “low growth inhibition”. The “cytotoxicity against MDA-MB-231 (in words)” value in series [2] is “low growth inhibition”.

As usually defined, the IC50 is the concentration at which inhibition is half-maximal. A high value points to weaker potency in that assay.
